Values quoted from earlier work as cited in US20260209855A1, “COMPOSITIONS AND METHODS FOR DETECTION AND TREATMENT OF PROSTATE CANCER” (The Regents of the University of California, priority 2022, published 2026).

How the values were obtained:
[1] = system: benign prostatic hyperplasia (BPH); conditions: patients with BPH and AI, treatment prior to BPH diagnosis; result in words
PCa = conditions: result in words
PCa patients = conditions: clinical trials; result in words

CN(Cc1cnc2nc(N)nc(N)c2n1)c1ccc(C(=O)N[C@@H](CCC(=O)O)C(=O)O)cc1 [methotrexate]
Likelihood to develop BPH [1]: did not have this effect

bevacizumab
Clinical trial results in the treatment of PCa (PCa): conflicting results

B1: siltuximab (antibody, chains of the INN, looked up, V domains shown)
VH: EVQLVESGGKLLKPGGSLKLSCAASGFTFSSFAMSWFRQSPEKRLEWVAEISSGGSYTYYPDTVTGRFTISRDNAKNTLYLEMSSLRSEDTAMYYCARGLWGYYALDYWGQGTSVTVSS
VL: QIVLIQSPAIMSASPGEKVTMTCSASSSVSYMYWYQQKPGSSPRLLIYDTSNLASGVPVRFSGSGSGTSYSLTISRMEAEDAATYYCQQWSGYPYTFGGGTKLEIK
notes: An IL-6 antagonist tested in clinical trials in PCa patients
Clinical efficacy in PCa patients (PCa patients): no clinical efficacy
